According to US20210261621A1, “Preparation of Dilipid Polymixins and Use Thereof as Antimicrobial Adjuvants” (priority 2018, published 2021):
Converted amounts (≈) assume the structure as drawn. Positions of bridges follow the written chain, without caps; N, C: chain ends. Non-standard residues stand in square brackets, D forms with d. Residues, ends and D or L forms follow the SMILES beside them. *: point of attachment. Acetyl(1-adamantyl) = O=C(CC12CC3CC(CC(C3)C1)C2)*; Benzoyl(4-Ph) = O=C(c1ccc(-c2ccccc2)cc1)*; Dab = NCC[C@H](N)C(=O)O

What was measured:
[1] = tested on: K. pneumoniae 113250; format: cell-based, Klebsiella pneumoniae; conditions: 113250
Experimental: (§1) We then addressed the possibility for the dilipid polymyxins to display enhanced antibacterial activity against colistin-resistant Gram-negative pathogens. […] The extended hydrophobic region of the dilipid polymyxin may provide additional hydrophobic interactions to the outer membrane of colistin-resistant organisms. Eight MDR colistin-resistant Gram-negative bacterial isolates were tested, including two E. coli isolates harboring the mcr-1 plasmid-encoded polymyxin resistance gene. We found no difference between the antibacterial activity of dilipid polymyxins and colistin against colistin-resistant Gram-negative bacteria (Table 3).
(§2) Bacterial strains were either obtained from the American Type Culture Collection (ATCC), Canadian National Intensive Care Unit (CAN-ICU) surveillance study or the Canadian Ward Surveillance (CANWARD) study. Strains from both CAN-ICU and CANWARD are isolates recovered from patients diagnosed with a presumed infectious disease that were admitted in a participating medical center across Canada. Efflux-deficient strain PAO200 (lacking MexAB-OprM efflux system) and PA0750 (lacking MexAB-OprM, MexCD-OprJ, MexEF-OprN, MexJK and MexXY efflux systems, and the outer membrane protein OpmH) were kindly gifted by Dr. Ayush Kumar (University of Manitoba).
(§3) The in vitro antibacterial activity of the compounds studied were assessed by broth microdilution susceptibility testing following CLSI guidelines. Bacterial cultures were grown overnight prior to the assay. The overnight grown cultures were diluted in saline to 0.5 McFarland turbidity, followed by 1:50 dilution in Mueller-Hinton broth (MHB) for inoculation to a final concentration of approximately 5×10^5 colony forming units/mL. Testing was performed on 96-well plates where the tested compounds were 2-fold serially diluted in MHB and incubated with equal volumes of bacterial inoculum at 37° C. for 18 h. […] Wells containing MHB with or without bacterial cells were used as positive or negative control, respectively.

[2] = tested on: K. pneumoniae 113254; format: cell-based, Klebsiella pneumoniae; conditions: 113254
Experimental: as §1, §2, §3

[3] = tested on: A. baumannii 92247; format: cell-based, Acinetobacter baumannii; conditions: 92247
Experimental: as §1, §2, §3

[4] = tested on: K. pneumoniae 116381; format: cell-based, Klebsiella pneumoniae; conditions: K. pneumoniae 116381
Text: as §2, §3

[5] = tested on: K. pneumoniae ATCC 13883; format: cell-based, Klebsiella pneumoniae; conditions: K. pneumoniae ATCC 13883
Text: as §2, §3

[6] = tested on: P. aeruginosa PAO200; conditions: P. aeruginosa PAO200, efflux-deficient strain that lacks the MexAB-OprM pump
Text: (§4) To our curiosity, we explored whether efflux can affect the activity of polymyxins. It is widely accepted that polymyxins disrupt Gram-negative bacterial membranes that result to intracellular component leakage and bacterial cell death. However, for this to occur requires the agent to reach the periplasmic space to interact and disrupt the inner membrane. Active efflux may potentially expel polymyxins out of the periplasm, effectively reducing its periplasmic and intracellular concentrations. To study the effect of efflux on polymyxins in Gram-negative pathogens, we used P. aeruginosa as they inherently overexpress efflux systems such as MexAB-OprM, MexCD-OprJ and MexXY-OprM. Moreover, antibiotic substrates for these efflux systems are mostly characterized. We evaluated and compared the activity of the dilipid polymyxins, colistin and PMBN against wild-type PAO1 and two efflux-deficient P. aeruginosa isogenic mutants (Table 5). The strain PAO200 lacks the MexAB-OprM efflux system while strain PAO750 lacks five clinically-relevant pumps (MexAB-OprM, MexCD-OprJ, MexEF-OprN, MexJK and MexXY) and outer membrane protein OpmH.
as §2, §3

[7] = tested on: P. aeruginosa PAO750; conditions: P. aeruginosa PAO750, efflux-deficient strain that lacks five pumps and OpmH
Text: as §4, §2, §3

[8] = tested on: E. coli CAN-ICU 61714; format: cell-based, Escherichia coli; conditions: E. coli CAN-ICU 61714
Text: as §2, §3

[9] = tested on: E. coli CAN-ICU 63074; format: cell-based, Escherichia coli; conditions: E. coli CAN-ICU 63074
Text: as §2, §3

[10] = tested on: E. coli ATCC 25922; format: cell-based, Escherichia coli; conditions: E. coli ATCC 25922
Text: as §2, §3

[11] = tested on: E. coli 107115; format: cell-based, Escherichia coli; conditions: E. coli 107115
Text: as §2, §3

[12] = tested on: S. maltophilia CAN-ICU 62584; format: cell-based, Stenotrophomonas maltophilia; conditions: S. maltophilia CAN-ICU 62584
Text: as §2, §3

[13] = tested on: MRSA ATCC 33592; format: cell-based, Staphylococcus aureus; conditions: for MIC: MRSA ATCC 33592 (methicillin-resistant Staphylococcus aureus)
Text: as §2, §3

[14] = tested on: S. aureus ATCC 29213; format: cell-based, Staphylococcus aureus; conditions: S. aureus ATCC 29213
Text: as §2, §3

[15] = tested on: P. aeruginosa 114228; format: cell-based, Pseudomonas aeruginosa; conditions: 114228
Experimental: as §1, §2, §3

[16] = tested on: P. aeruginosa 91433; format: cell-based, Pseudomonas aeruginosa; conditions: 91433
Experimental: as §1, §2, §3

[17] = tested on: P. aeruginosa 101243; format: cell-based, Pseudomonas aeruginosa; conditions: 101243
Experimental: as §1, §2, §3

[18] = tested on: MRSE CAN-ICU 61589; format: cell-based, S. epidermidis; conditions: MRSE CAN-ICU 61589 (methicillin-resistant S. epidermidis)
Text: as §2, §3

[19] = tested on: S. pneumoniae ATCC 49619; format: cell-based; conditions: S. pneumoniae ATCC 49619
Text: as §2, §3

[20] = tested on: E. faecium ATCC 27270; format: cell-based; conditions: E. faecium ATCC 27270
Text: as §2, §3

[21] = tested on: E. faecalis ATCC 29212; format: cell-based; conditions: E. faecalis ATCC 29212
Text: as §2, §3

[22] = tested on: MSSE CANWARD-2008 81388; format: cell-based, Staphylococcus epidermidis; conditions: for MIC: MSSE CANWARD-2008 81388 (methicillin-susceptible Staphylococcus epidermidis)
Text: as §2, §3

[23] = tested on: A. baumannii AB031; format: cell-based, Acinetobacter baumannii; conditions: A. baumannii AB031
Text: as §2, §3

[24] = tested on: A. baumannii 110193; format: cell-based, Acinetobacter baumannii; conditions: A. baumannii 110193
Text: as §2, §3

CC(C)C[C@@H]1NC(=O)[C@@H](Cc2ccccc2)NC(=O)[C@H](CCN)NC(=O)[C@@H](NC(=O)[C@H](CCN)NC(=O)[C@@H](NC(=O)[C@H](CCNC(=O)CC23CC4CC(CC(C4)C2)C3)NC(=O)CC23CC4CC(CC(C4)C2)C3)[C@@H](C)O)CCNC(=O)[C@H]([C@@H](C)O)NC(=O)[C@H](CCN)NC(=O)[C@H](CCN)NC1=O [Compound 4, Diadamantane Acetic Acid (Di-Adamantyl) Polymyxin] ({Acetyl(1-adamantyl)}-[Dab](Acetyl(1-adamantyl))T[Dab][Dab][Dab][dF]L[Dab][Dab]T; lactam 4-C) gave an MIC [1] greater than 64 µg/mL, an MIC [2] greater than 64 µg/mL and an MIC [3] of 8 µg/mL (≈ 5.65 µM). It also gave an MIC [4] greater than 128 µg/mL, an MIC [5] greater than 128 µg/mL and an MIC [6] of 4 µg/mL (≈ 2.83 µM). It also gave an MIC [7] of 8 µg/mL (≈ 5.65 µM), an MIC [8] of 64 µg/mL (≈ 45.2 µM) and an MIC [9] of 64 µg/mL (≈ 45.2 µM). The MIC [10] was 4 µg/mL (≈ 2.83 µM), the MIC [11] was 4 µg/mL (≈ 2.83 µM) and the MIC [12] was 64 µg/mL (≈ 45.2 µM). The MIC [13] was 32 µg/mL (≈ 22.6 µM), the MIC [14] was 16 µg/mL (≈ 11.3 µM) and the MIC [15] was 8 µg/mL (≈ 5.65 µM). The MIC [16] was 8 µg/mL (≈ 5.65 µM), the MIC [17] was 64 µg/mL (≈ 45.2 µM) and the MIC [18] was 16 µg/mL (≈ 11.3 µM). It also gave an MIC [19] of 32 µg/mL (≈ 22.6 µM), an MIC [20] of 16 µg/mL (≈ 11.3 µM) and an MIC [21] of 32 µg/mL (≈ 22.6 µM). The MIC [22] was 16 µg/mL (≈ 11.3 µM), the MIC [23] was 16 µg/mL (≈ 11.3 µM) and the MIC [24] was 32 µg/mL (≈ 22.6 µM).

CC(C)C[C@@H]1NC(=O)[C@@H](Cc2ccccc2)NC(=O)[C@H](CCN)NC(=O)[C@@H](NC(=O)[C@H](CCN)NC(=O)[C@@H](NC(=O)[C@H](CCNC(=O)c2ccc(-c3ccccc3)cc2)NC(=O)c2ccc(-c3ccccc3)cc2)[C@@H](C)O)CCNC(=O)[C@H]([C@@H](C)O)NC(=O)[C@H](CCN)NC(=O)[C@H](CCN)NC1=O [Compound 5, Dibiphenyl-4-Carboxylic Acid (Di-Biphenyl) Polymyxin] ({Benzoyl(4-Ph)}-[Dab](Benzoyl(4-Ph))T[Dab][Dab][Dab][dF]L[Dab][Dab]T; lactam 4-C) gave an MIC [1] greater than 64 µg/mL, an MIC [2] greater than 64 µg/mL and an MIC [3] of 8 µg/mL (≈ 5.62 µM). It also gave an MIC [4] greater than 128 µg/mL, an MIC [5] greater than 128 µg/mL and an MIC [6] of 4 µg/mL (≈ 2.81 µM). For the same compound, the MIC [7] was 4 µg/mL (≈ 2.81 µM), the MIC [8] was 32 µg/mL (≈ 22.5 µM) and the MIC [9] was 32 µg/mL (≈ 22.5 µM). It also gave an MIC [10] of 8 µg/mL (≈ 5.62 µM), an MIC [11] of 4 µg/mL (≈ 2.81 µM) and an MIC [12] of 64 µg/mL (≈ 45 µM). For the same compound, the MIC [13] was 16 µg/mL (≈ 11.2 µM), the “fold better MIC than colistin” value ([13]; methicillin-resistant Staphylococcus aureus) was 32 fold and the MIC [14] was 8 µg/mL (≈ 5.62 µM). It also gave an MIC [15] of 16 µg/mL (≈ 11.2 µM), an MIC [16] of 8 µg/mL (≈ 5.62 µM) and an MIC [17] greater than 128 µg/mL. The MIC [18] was 8 µg/mL (≈ 5.62 µM), the MIC [19] was 32 µg/mL (≈ 22.5 µM) and the MIC [20] was 8 µg/mL (≈ 5.62 µM). The MIC [21] was 16 µg/mL (≈ 11.2 µM), the MIC [22] was 8 µg/mL (≈ 5.62 µM) and the “fold better MIC than colistin” value ([22]; methicillin-susceptible Staphylococcus epidermidis) was 32 fold. The MIC [23] was 8 µg/mL (≈ 5.62 µM) and the MIC [24] was 16 µg/mL (≈ 11.2 µM).
